EP0247464A1, “New quinolone compounds and a process for the preparation thereof” (FUJISAWA PHARMACEUTICAL CO., LTD., priority 1986, dated 1987)
≈ marks a conversion by molar mass, not a printed value.

Legend:
[1] = tested on: Mycoplasma pulmonis PG-22; test: Minimal Inhibitory Concentration (MIC), antimycoplasmal activity, agar dilution method; format: cell-based; conditions: PG22, 37°C for 3 to 4 days, 5 per cent carbon dioxide, lowest concentration completely inhibiting colony growth
Description: MICs of test compound were obtained by the agar dilution method.
Agar plates contained two-fold decremental dilutions of the test compound, ranging from 0.05 to 100 pg/ml. The inoculum (0.01 ml, containing approximately 10^5 CFU/ml of liquid medium which had been cultured at 37°C for 3 days) was plated on moisture-free media surfaces. Plates were placed in a humidified atmosphere of 5 per cent carbon dioxide and 95 per cent air, and incubated at 37°C for 3 to 4 days. The colonies grown on the plate were observed under a low microscopic magnification (x60).

Vibrio anguillarum NP-1 = test: Minimal Inhibitory Concentration (MIC), antibacterial activity against fish-disease strain; format: cell-based; conditions: NP1, 2.5% sodium chloride added Heart Infusion Agar, 20 hours incubation at 25°C
Description: MICs againstvibrio anguillarum originated in fish diseases were obtained by the following method. An overnight culture broth of each strain was diluted 10-fold (approximately 10^6 cells/ml) and was stamped on 2.5% sodium chloride added Heart Infusion Agar containing graded concentrations of the test compounds, and MICs were expressed in terms of pg/ml after 20 hours incubation at 25°C.

Acute toxicity in mice = format: in vivo; conditions: 100 mg/kg injected into lateral vein, ICR-strain male mouse, 5 mice, observed for 7 days
Description: The test compound (16 mg) was dissolved in 1N NaOH (0.1 ml) and steril distilled water (3.9 ml).

O=C(O)c1cn(C2CC2)c2c(F)c(N3CCNCC3)c(F)c(F)c2c1=O [compound (I-d), 1-Cyclopropyl-5,6,8-trifluoro-7-(1-piperazinyl)-4-quinolone-3-carboxylic acid]
MIC [1]: 0.1 µg/mL (≈ 0.272 µM) | MIC (Vibrio anguillarum NP-1): 0.1 µg/mL (≈ 0.272 µM) | Survivals / test mice (Acute toxicity in mice): 5 / 5
